According to patent US8349793B2, “Method for treatment of inflammatory disease and disorder” (Heal0r, Ltd., priority 2010, dated 2013):
Values joined by “and” are separate entries in the source; they are usually repeats but may differ in a detail not shown here. Equal entries are not always repeated. Where no end group is shown, it is not given here. The star is where a group is joined. Myristoyl = CCCCCCCCCCCCCC(=O)*

What was measured:
IKK = assay: TNFα induced IKK activation in keratinocytes (Western Blot, phospho-IKKa/b); assay type: cell-based, Murine; details: TNFα 35 ng/ml for 15 minutes
Experimental: Murine primary keratinocytes were grown for 4 days to full confluence in Low Ca^+2 MEM. Cells were pretreated with designated concentration of MPDY-1 as described in the figure for 1 hour, prior to TNFα induction. Following MPDY-1 pretreatment, cells were incubated with TNFα 35 ng/ml for 15 minutes. Reaction was stopped by adding ice-cold dPBS−/− and keratinocytes were homogenized in RIPA buffer. Samples were subjected to SDS PAGE Western Blot analysis, utilizing phospho-IKKa/b (Ser176/180 antibody).

C57BL/6J mouse = assay: Wound model of skin inflammation, immunohistochemical staining (ICAM-1, Iba-1, MAC-2, CD3, neutrophils); assay type: in vivo; details: treated daily
Description: A methodology was developed to detect and quantitatively assess inflammation in skin lesions in a wound setting which allows one to follow cutaneous inflammatory response in the different skin compartments and identify agents that affect this response (as a preliminary screening). Inflammatory response was considered severe when two of the following three conditions were evident: (1) abscess formation; (2) excessive leukocytosis (>100 cells in a fixed field×200); (3) high WB C/RBC ratio in blood vessels, where >20% of WBC content within the blood vessels is shown in a fixed field×200. Mechanistic characterization of the immunological response is studied utilizing markers to identify infiltration and activation of specific immunological cells. Examples for such markers are: ICAM-1 (as a marker activated basal keratinocytes and endothelial cells), MAC-2 (as a marker for activated macrophages) and CD3 (T cell marker).
A two-cm longitudinal incision was done on the upper back of a C57BL/6J mouse. Following wounding, a sterile pad was sutured to the mouse's skin. Animals were treated daily with HO/02/10 (n=12). Five days post-wounding, when inflammatory phase reaches its peak, the mice were sacrificed, skin tissues were embedded in paraffin and immunohistochemical staining was performed utilizing anti-ICAM-1 antibodies.
As above, a two-cm longitudinal incision was done on the upper back of a C57BL/6J mouse. Following wounding, a sterile pad was sutured to the mouse's skin. Animals were treated daily with MPDY-1 (n=6). Five days post-wounding, when inflammatory phase reaches its peak, the mice were sacrificed, skin tissues were embedded in paraffin and immunohistochemical staining was performed utilizing anti-ICAM-1 antibodies.
The effect of MPDY-1 on macrophage infiltration was also shown by Iba-1 staining. Iba-1 is a general marker for macrophages. […] As above, a two-cm longitudinal incision was done on the upper back of a C57BL/6J mouse. Following wounding, a sterile pad was sutured to the mouse's skin. Animals were treated daily with MPDY-1 (n=6). […]

healthy volunteers = assay: Histamine prick test model of pruritus; assay type: in vivo, human (healthy volunteers); details: for Pruritus score after minutes of histamine, 5 minutes / Pruritus score after minutes of histamine, 15 minutes: topical on forearm
Experimental: Forearms of individual subjects were injected with histamine solution and placebo. The formulation of Example 4 was topically applied with MPDY-1 at various concentrations and pruritus was assessed over a time course as shown, for example in FIG. 34.
This test was performed by placing a drop of a solution containing a possible allergen on the skin, and a series of scratches or needle pricks allow the solution to enter the skin. The extract enters into the outer layer of the skin (epidermis) using a fine needle (such as a. 26G disposable needle). This testing is not painful, and generally there is no bleeding involved since the needle only scratches the surface of the skin. If the skin develops a red, raised itchy area (called a wheal), it is as a result of allergic reaction to that allergen. This is called a positive reaction. A drop of extract is introduced through a fine needle (such as a No. 26 disposable needle). The test causes no discomfort and minimal trauma so that controls and negative test show only the site of the prick; if anything.
26G needles were utilized to introduce histamine stock (Histatrol Positive Control Histamine, 1 mg/ml, code #HIST14999V, Trupharm). The test was conducted on healthy volunteers in a double-blind, randomized test. The formulations were applied on the forearms. Three treatment areas were chosen and marked (the surface of the forearm from the elbow to the wrist was divided transversely into proximal, middle and distal thirds); the areas were pricked prior the below treatments.
An area was treated with the active formulation in a double-blind manner, for 10 minutes—marked as A.
An area was treated with the Placebo in a double-blind manner, for 10 minutes—marked as C.
A color photograph was taken at time zero (T0), after 10, 20, 30 minutes.
Pruritus questionnaire was answered by the subjects 5 and 15 minutes after treatment.
In one study, three subjects were treated, in the left or right arm, with MDPY-1 in gel or cream formulations, or with control formulations, as shown in Table 9.
Subjects were provided with pruritus sensation forms and asked to indicate the level of pruritus sensed from 0 (no response) to 4 (uncontrollable pruritus) at different time intervals.

keratinocytes = assay: Cytokine secretion in keratinocytes stimulated by LPS, TNFα or IL-17 (ELISA); assay type: cell-based, BALB/C mice
Experimental: To determine their effects, keratinocytes were derived from newborn BALB/C mice skin. The cells were incubated for 5 days in 24 wells plate. Cells were then incubated with PBS−/− as control or stimulated by LPS, TNFα, or IL-17. PKCα inhibitors were added as indicated. Medium containing secreted cytokines was collected after 48 hr and analyzed using ELISA. FIG. 40 is a tabular summary of cytokine secretion.
PKCδactivators were also shown to have an anti-inflammatory effect on keratinocytes and splenocytes. Keratinocytes were derived from newborn BALB/C mice skin. The cells were incubated for 5 days in 24 wells plate. Cells were then incubated with PBS−/− as control or stimulated by LPS or TNFα. The PKCδ inhibitor DAP-1 (SEQ ID NO: 16) was added. Medium containing secreted cytokines was collected after 48 hr and analyzed using ELISA. FIG. 35 is a tabular summary showing cytokine secretion in splenocytes stimulated with LPS. […] Cytokine secretion in keratinocytes stimulated by TNFα: following stimulation with 35 ng/ml TNFα. And treatment with 10 μg/ml of DAP-1, the cytokine levels of IL-1α, G-CSF, MIP-2 and KC were reduced by 95%, 70%, 20% and 30# respectively.
PKCε inhibitors were also shown to have an anti-inflammatory effect on keratinocytes. Keratinocytes were derived from newborn BALB/C mice skin. The cells were incubated for 5 days in 24 wells plate. Cells were then incubated with PBS−/− as control or stimulated by LPS or TNFα. The PKCεinhibitors EPIP-1 (SEQ ID NO: 20), EPIP-2 (SEQ ID NO: 21), or EPIP-4 (SEQ ID NO: 23) were added. Medium containing secreted cytokines was collected after 48 hr and analyzed using ELISA. FIGS. 36-39 show the results for secretion of specific cytokines while Table 8 summarizes cytokine secretion for the various PKCε inhibitors: […]

[1] = 10 ppm in gel, score 0 (no response) to 4 (uncontrollable pruritus)

**Q.** For “Myristoyl-Phe-Ala-Arg-Lys-Gly-Ala-Leu-Arg-Gln (Myristoyl-FARKGALRQ) [MPDY-1]”, which “MPDY-1 concentration exhibiting the strongest inhibition of IKK activation” value (IKK; lowest concentration tested) is on record?
**A.** 0.1 mg/mL

**Q.** What about the “TNFα induced IKK activation in keratinocytes” value (IKK; pretreated 1 hour, dose dependant) of the same substance?
**A.** significantly reduced

**Q.** What about the “Activation of macrophages (MAC-2 staining)” value (C57BL/6J mouse; 5 days, 1, 10 and 100 micrograms per mL) of the same substance?
**A.** significantly inhibited

**Q.** What about the “ICAM expression on basal keratinocytes and endothelial cells in blood vessels of the skin (ICAM-1 staining)” value (C57BL/6J mouse; five days post-wounding) of the same substance?
**A.** down regulation

**Q.** What about the “macrophage infiltration (Iba-1 staining)” value (C57BL/6J mouse; five days post-wounding) of the same substance?
**A.** dose dependent effect

**Q.** What about the “Pruritus score after minutes of histamine, 5 minutes” value (healthy volunteers; 1 μg/ml in DPBS, score 0 to 4) of the same substance?
**A.** 3

**Q.** And the “Pruritus score after minutes of histamine, 15 minutes” value (from here on “Pruritus score … 15 minutes”) (healthy volunteers; 1 μg/ml in DPBS, score 0 to 4)?
**A.** 1

**Q.** What about the “Pruritus score after minutes of histamine, 5 minutes” value (healthy volunteers; 10 μg/ml in DPBS, score 0 to 4) of the same substance?
**A.** 2 and 1

**Q.** What about the “Pruritus score … 15 minutes” value (healthy volunteers; 10 μg/ml in DPBS, score 0 to 4) of the same substance?
**A.** 0

**Q.** What about the “Pruritus score after minutes of histamine, 5 minutes” value (healthy volunteers; 10 ppm in cream, score 0 to 4) of the same substance?
**A.** 1

**Q.** And the “Pruritus score … 15 minutes” value (healthy volunteers; 10 ppm in cream, score 0 to 4)?
**A.** 0

**Q.** What about the “Pruritus score after minutes of histamine, 5 minutes” value (healthy volunteers; [1]) of the same substance?
**A.** 2

**Q.** What about the “Pruritus score … 15 minutes” value (healthy volunteers; [1]) of the same substance?
**A.** 0

**Q.** And the “redness, inflammation and pruritus as compared with control” value (healthy volunteers; histamine prick test, over the time course)?
**A.** significantly attenuated

**Q.** And the “cytokine secretion from LPS and TNFα activated keratinocytes” value (keratinocytes; FIGS. 19 to 23)?
**A.** decrease

**Q.** What about the “cytokine secretion from IL-17A activated keratinocytes” value (keratinocytes; FIGS. 24 to 27) of the same substance?
**A.** decrease

**Q.** What about the “cytokine secretion in keratinocytes” value (keratinocytes; stimulated by LPS, TNFα, or IL-17, 48 hr) of the same substance?
**A.** effective in decreasing cytokine secretion
